US20130129595A1 (SOLVAY SA, priority 2010, published 2013)

Assay: Solubility of LiPO2F2, LiF and LiPF6 in organic solvents

SMILES	Solubility (in words) (in acetone)	Solubility (in words) (in aprotic organic solvents)	Solubility (in words) (in dimethoxyethane)	Solubility (in words) (in dimethyl carbonate and propylene carbonate)
[F-].[Li+] [LiF]	very low solubility	only very sparingly soluble	at most in negligible amounts	essentially insoluble
F[P-](F)(F)(F)(F)F.[Li+] [LiPF6]	–	comparably good solubility	–	–
